The results in this text go back to paper PMC5986790, “Rational Discovery of (+) (S) Abscisic Acid as a Potential Antifungal Agent: a Repurposing Approach” (Scientific Reports, 2018).

The target of test [1] is T1, yeast chorismate mutase (Saccharomyces cerevisiae, UniProt P32178). Briefly: HPLC of chorismic acid and phenylpyruvate (prephenate converted by acid). The class given is biochemical. The arrangement: gene ARO7; native enzyme in crude sonicated yeast cell extract, not purified; homodimer (known biology); 256 residues. The note with it: 1 mM chorismic acid; yeast sonicate; Tris-HCl pH 8; 30 °C; ABA 10-500 µM.

Test [2] addresses T1, yeast chorismate mutase. On the set-up: gene ARO7. The note with it: 1 mM chorismic acid; yeast sonicate; Tris-HCl pH 8; 30 °C; tyrosine 10-500 µM; allosteric.
In test [3] the target is T1, yeast chorismate mutase. The class given is biochemical. The arrangement: gene ARO7; native enzyme in crude sonicated yeast cell extract, not purified; homodimer (known biology); 256 residues. The note with it: 1 mM chorismic acid; yeast sonicate; Tris-HCl pH 8; 30 °C.

T1 sequence (P32178 whole entry): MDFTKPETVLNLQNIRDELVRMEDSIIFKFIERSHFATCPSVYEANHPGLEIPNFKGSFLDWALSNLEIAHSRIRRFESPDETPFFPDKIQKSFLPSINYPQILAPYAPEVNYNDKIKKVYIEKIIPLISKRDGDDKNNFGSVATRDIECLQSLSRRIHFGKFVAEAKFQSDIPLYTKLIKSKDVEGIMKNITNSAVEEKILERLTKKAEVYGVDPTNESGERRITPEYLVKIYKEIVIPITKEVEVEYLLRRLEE

With `CC1=CC(=O)CC(C)(C)[C@@]1(O)/C=C/C(C)=C\C(=O)O` [(+)-Abscisic acid, 5-(1-hydroxy-2,6,6-trimethyl-4-oxo-2-cyclohexene-1-yl)-3-methyl-pentadienoic acid], the “inhibitory concentration (range, not an IC50)” value against yeast chorismate mutase [1] was 200 to 300 µM.

Turning to `N[C@@H](Cc1ccc(O)cc1)C(=O)O` [Tyrosine], at yeast chorismate mutase [2], the “optimal inhibitor concentration (not an IC50)” value came out at 100 µM.

As to `C=C(O[C@@H]1C=C(C(=O)O)C=C[C@H]1O)C(=O)O` [chorismic acid], the “HPLC of chorismic acid and phenylpyruvate (prephenate converted by acid)” value at yeast chorismate mutase [3] is listed as “yeast chorismate mutase catalysed the conversion of externally added chorismic acid to prephenic acid”.
